These results are taken from patent publication US9925235B2, “Tilapia piscidins for use in enhancement of wound healing” (Academia Sinica, priority 2015, dated 2018).

The subject of data set [1] is Collagen I, collagen III, KGF gene expression in Hs-68 cells. Kind of data set: Real-time PCR of collagen I, collagen III, KGF in Hs-68 cells. In kind it is cell-based, human. As to conditions: TP4 6.25 μg/ml, 48 h, vs controls. How it is done: In FIG. 5A-5C, Hs-68 cells were treated with different doses of TP4 for 48 h, and cell viability was measured by neutral red, LDH, and MTT assays. (r=3; n=6.) In FIG. 5D-5F, the experimental Hs-68 cells were treated with TP4 ([…]), while control cells were untreated. After 48 h, total RNA was isolated and reverse transcribed for use in real-time qPCR analysis. Six replicate wells were analyzed per assay. Results represent the mean±SEM from three independent experiments. (Student's t-test: *, P<0.05; **, P<0.01; n.s.: not significant).
Total RNA was isolated from HaCaT and Hs-68 cells, and purified using a Qiagen RNeasy kit. Reverse transcription into cDNA was performed with an iScript cDNA Synthesis Kit (BIO-RAD, USA) according to the manufacturer's recommendations. Real-time polymerase chain reaction (PCR) was performed to analyze gene expression, using […] of cDNA, 2× iQSYBR® Green Supermix (BIO-RAD, USA), and 500 nM of forward and reverse primers against selected genes or GAPDH (reference gene), according to the instructions of the manufacturer. Quantitative PCR was performed under the following conditions: 40 cycles of 1 min at 95° C., 30 s at 55° C., and 1 min at 72° C. The threshold cycle number (Ct) was calculated with BIO-RAD software. Relative transcript quantities were calculated using the ΔCt method with GAPDH as the internal reference gene. ΔCt is the difference in the threshold cycles of messenger (m)RNA for selected genes relative to those of GAPDH mRNA. Real-time PCR was performed in triplicate for each experimental group.

For data set [2], the system named is Hs-68 human foreskin fibroblast cell line. In kind it is cell-based. How it is done:
An MRSA strain commonly associated with human wound infections was selected to generate a polymicrobial solution. The MRSA strain is a clinical isolate from stool obtained from Taipei City Hospital (Heping Fuyou branch). The strain was identified by routine laboratory methods and stored in 20% (vol/vol) glycerol at −80° C. Tryptic Soy Broth (TSB) was used as the culture medium. HaCaT human keratinocyte cell line and Hs-68 human foreskin fibroblast cell line were grown in DMEM containing 10% (v/v) FBS, 0.37% (w/v) NaHCO3, penicillin (100 unit/ml), streptomycin (100 μg/ml), 0.1 mM NEAA, and 1 mM sodium pyruvate at 37° C. in a humidified incubator under 5% CO2 and 95% air. The cells were harvested at ca. 90% confluence (ca. 10^6 cells/10-cm dish). Balb/c female mice were used for the experiments. All mice were housed in cages under specific pathogen-free conditions, and given water and standard laboratory chow ad libitum during the experiments. All animal handing procedures were in accordance with National Taiwan Ocean University (NTOU) guidelines. All procedures were approved by the Animal Care and Use Committee of NTOU.
Cells were cultured at a density of 5×10^4 cells per well in flat-bottomed 96-well plates. […] Cell proliferation was measured by neutral red, LDH, and MTT assay, according to the manufacturer's instructions. […]

In the next data set the test system is MRSA. Kind of data set: Mouse model of MRSA sepsis, TP4. In kind it is in vivo, Balb/c mice. How it is done:
Female Balb/c mice (6-8 weeks old) were injected intraperitoneally with 10^6 CFU MRSA per mouse. Ten minutes after MRSA injection, mice were injected intraperitoneally with vancomycin (0.01 mg/g mouse body weight), methicillin (0.01 mg/g mouse body weight), or TP4 (0.005 mg/g mouse body weight). In a second set of experiments, mice were given intraperitoneal injections of TP4 (0.005 mg/g mouse body weight) at 10, 60, 120, or 180 min after MRSA injection. Survival rate and status were recorded every 24 h for up to 192 h. To examine bacterial dissemination, mice were sacrificed at 48 h after injection with antibiotics or TP4, and the bacterial numbers in blood, peritoneum, spleen, liver, and mesenteric lymph nodes were recorded. Colony counts from the diluted bacterial solutions were expressed relative to those at the start of treatment. These experiments consisted of four groups, and each group contained 10 mice.
Infected mice were untreated, or treated with TP4, methicillin, or vancomycin via i.p. injection. Bacterial numbers in blood, peritoneum, spleen, liver, and mesenteric lymph nodes were subsequently recorded. Colony counts from the diluted bacterial solutions are expressed relative to those at the start of treatment. Each value represents the mean value from three determinations±standard deviation (SD).

Setting [3] is: 48 hours after the last treatment.

With “Tilapia piscidin 4 (FIHHIIGGLFSAGKAIHRLIRRRRR; listed as Oreochromis niloticus) [TP4]”, in data set [1], the “Collagen I gene expression” value was “enhanced”, the “Collagen III gene expression” value is listed as “enhanced” and the KGF gene expression result is given as “enhanced”. Besides, the cytotoxic effects entry in data set [2] is “did not exhibit cytotoxic effects”. The cell proliferation result in data set [2] (Hs-68 cells, low doses, 48 h) is on record as “significantly increased”. In the data set on MRSA (setting [3]), the “Mean ± SD count, Blood” value is 0^A CFU/mL; the “Mean ± SD count, Liver” value is recorded as 2.4 × 10^4 ± 1 × 10^6A CFU/mL; the “Mean ± SD count, Mesenteric lymph nodes” value was 6 × 10^5 ± 1 × 10^5A CFU/mL; the “Mean ± SD count, Peritoneum” value is reported as 1 × 10^6 ± 1 × 10^4A CFU/mL. In addition, in the data set with MRSA (setting [3]), the “Mean ± SD count, Spleen” value is 3 × 10^6 ± 1.2 × 10^6A CFU/mL. In the data set on MRSA (8 days after MRSA infection, i.p. 10 min after MRSA, TP4 0.005 mg/g, vancomycin and methicillin 0.01 mg/g), the survival rate is 100%. Moreover, the “bacterial burden in organs vs untreated controls” value in the data set with MRSA (P<0.05) is reported as “significantly reduced the bacterial burden in all examined organs”. The substance further had a survival rate in the data set on MRSA (TP4 0.005 mg/g injected 10 min after MRSA) of 100%. This substance registered a survival rate in the data set with MRSA (TP4 0.005 mg/g injected 60 min after MRSA) of 80%. Besides, the survival rate in the data set on MRSA (TP4 0.005 mg/g injected 120 min after MRSA) turned out to be 60%. For the same substance, the survival rate in the data set with MRSA (TP4 0.005 mg/g injected 180 min after MRSA) was 50%. Also, the “% lethality” value with MRSA (monitored for 2 day after injection, MRSA 10^6 CFU i.p.) is 0^A %.
